Here are results for 37 molecules from US20240336642A1 (The General Hospital Corporation, priority 2021, published 2024).

This experiment addresses h12/15-LOX (Homo sapiens (Human), UniProt P16050). The experiment in a line: 12/15-LOX enzyme inhibition IC50 assay (Examples 1 and 2). As to conditions: for Emax: h12/15-LOX, read-out: Max % inhibition. The class given is biochemical. As to the method:
Enzyme was then added to the cuvettes. […] The % inhibition for each test compound concentration were calculated as follows: […]

Molecules are shown by their SMILES. Counter-ions that a name gives are not always drawn.

h12/15-LOX, sequence (P16050 whole entry): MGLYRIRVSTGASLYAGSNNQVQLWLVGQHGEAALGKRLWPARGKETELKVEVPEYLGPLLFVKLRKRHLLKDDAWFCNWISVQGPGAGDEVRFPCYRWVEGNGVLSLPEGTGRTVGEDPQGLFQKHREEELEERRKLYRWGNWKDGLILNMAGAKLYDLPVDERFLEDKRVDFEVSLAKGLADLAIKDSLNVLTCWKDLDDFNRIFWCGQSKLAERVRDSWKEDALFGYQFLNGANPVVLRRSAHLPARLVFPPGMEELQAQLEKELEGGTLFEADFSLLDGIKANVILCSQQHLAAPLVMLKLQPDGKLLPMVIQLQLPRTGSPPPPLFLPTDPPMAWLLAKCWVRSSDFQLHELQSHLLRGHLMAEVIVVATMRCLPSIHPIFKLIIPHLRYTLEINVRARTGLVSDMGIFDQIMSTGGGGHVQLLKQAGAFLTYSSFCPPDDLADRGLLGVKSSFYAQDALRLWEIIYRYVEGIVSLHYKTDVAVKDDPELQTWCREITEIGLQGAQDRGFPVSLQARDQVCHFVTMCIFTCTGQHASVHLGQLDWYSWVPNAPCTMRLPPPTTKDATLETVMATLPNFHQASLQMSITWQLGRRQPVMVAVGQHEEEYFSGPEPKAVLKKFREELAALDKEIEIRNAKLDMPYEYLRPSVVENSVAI

In general, IC50 refers to the concentration that inhibits the measured activity by half. A high value points to weaker potency in that assay. Take `N#Cc1nc(-c2cc(Cl)cc(Cl)c2OC(F)F)oc1NCCOCCO` [Compound 29, 2-(3,5-Dichloro-2-(difluoromethoxy)phenyl)-5-((2-(2-hydroxyethoxy)ethyl)amino)oxazole-4-carbonitrile]: 3000 nM corresponded to half-maximal inhibition (IC50) and the Emax was 100%.

The molecule `CN(C)CCCOC(=O)Nc1oc(-c2cc(Cl)cc(Cl)c2Cl)nc1C#N` [Compound 57, 3-(dimethylamino) propyl (4-cyano-2-(2,3,5-trichlorophenyl)oxazol-5-yl) carbamate hydrochloride] gave an IC50 of more than 20000 nM.

Regarding `COCCOCCNc1oc(-c2cc(C)cc(Cl)c2Cl)nc1C#N` [Compound 38, 2-(2,3-Dichloro-5-methylphenyl)-5-((2-(2-methoxyethoxy)ethyl)amino)oxazole-4-carbonitrile], the IC50 is 6600 nM and the Emax stood at 100%.

Consider `CNc1oc(-c2cc(Cl)cc(Cl)c2OC(F)F)nc1C#N` [Compound 4], for which the Emax is 67%.

As to `C=CCNc1oc(-c2cc(Cl)cc(Cl)c2Cl)nc1C#N` [Compound 14, 5-(allylamino)-2-(2,3,5-trichlorophenyl)oxazole-4-carbonitrile], the IC50 was 110 nM and the Emax came to 88%.

On to `COCCNc1oc(-c2cc(Cl)cc(Cl)c2C)nc1C#N` [Compound 41, 2-(3,5-Dichloro-2-methylphenyl)-5-((2-methoxyethyl)amino)oxazole-4-carbonitrile], for which the 50% inhibitory concentration (IC50) turned out to be 170 nM and the Emax worked out at 89%.

Turning to `CN(C)CCCCCC(=O)N(C)c1oc(-c2cc(Cl)cc(Cl)c2Cl)nc1C#N` [Compound 61, N-(4-cyano-2-(2,3,5-trichlorophenyl)oxazol-5-yl)-6-(dimethylamino)-N-methylhexanamide hydrochloride], the IC50 is more than 20000 nM.

In the case of `CNc1oc(-c2cc(Cl)cc(F)c2Cl)nc1C#N` [Compound 7], the IC50 was more than 20000 nM and the Emax is 37%.

Take `N#Cc1nc(-c2cc(Cl)cc(Cl)c2OC(F)F)oc1NCCCCCO` [Compound 23, 2-(3,5-Dichloro-2-(difluoromethoxy)phenyl)-5-((5-hydroxypentyl)amino)oxazole-4-carbonitrile]: half-maximal inhibition (IC50) was put at 2000 nM and the Emax was found to be 97%.

As to `N#Cc1nc(-c2cc(Cl)cc(Cl)c2Cl)oc1NCCOCCNc1ccccc1` [Compound 81, 5-((2-(2-(Phenylamino)ethoxy)ethyl)amino)-2-(2,3,5-trichlorophenyl)oxazole-4-carbonitrile], the IC50 is 260 nM and the Emax worked out at 95%.

Take `N#Cc1nc(-c2cc(Cl)cc(Cl)c2Cl)oc1NCCOCCOc1cncnc1` [Compound 82, 5-((2-(2-(Pyrimidin-5-yloxy)ethoxy)ethyl)amino)-2-(2,3,5-trichlorophenyl)oxazole-4-carbonitrile]: the IC50 was determined as 360 nM and the Emax came to 82%.

With `N#Cc1nc(-c2cc(Cl)cc(Cl)c2Cl)oc1NCC#CCOCc1ccncc1` [Compound 88, 5-((4-(Pyridin-4-ylmethoxy)but-2-yn-1-yl)amino)-2-(2,3,5-trichlorophenyl)oxazole-4-carbonitrile], half-maximal inhibition (IC50) required 81 nM and the Emax is 74%.

Consider `N#Cc1nc(-c2cc(Cl)cc(Cl)c2Cl)oc1NCCOCCOCC(F)(F)F` [Compound 71, 2-(2,3,5-Trichlorophenyl)-5-((2-(2-(2,2,2-trifluoroethoxy)ethoxy)ethyl)amino)oxazole-4-carbonitrile], for which the IC50 was determined as 160 nM and the Emax was determined as 95%.

Turning to `CN(C)CCCNC(=O)Nc1oc(-c2cc(Cl)cc(Cl)c2Cl)nc1C#N` [Compound 67, 1-(4-cyano-2-(2,3,5-trichlorophenyl)oxazol-5-yl)-3-(3-(dimethylamino)propyl) urea hydrochloride], the concentration for half-maximal inhibition (IC50) is more than 20000 nM.

For the molecule `COCCNc1oc(-c2cc(Cl)cc(Cl)c2OC(F)F)nc1C#N` [Compound 40, 2-(3,5-Dichloro-2-(difluoromethoxy)phenyl)-5-((2-methoxyethyl)amino)oxazole-4-carbonitrile], the IC50 turned out to be 290 nM and the Emax is 94%.

Turning to `N#Cc1nc(-c2cc(Cl)cc(Cl)c2Cl)oc1NCCOCCN1CCC(F)(F)CC1` [Compound 98, 5-((2-(2-(4,4-Difluoropiperidin-1-yl)ethoxy)ethyl)amino)-2-(2,3,5-trichlorophenyl)oxazole-4-carbonitrile], the IC50 was determined as 3100 nM and the Emax is 79%.

Take `COCCOCCNc1oc(-c2cc(Cl)cc(Cl)c2C)nc1C#N` [Compound 34]: the Emax came to 100%.

On to `N#Cc1nc(-c2cc(Cl)cc(Cl)c2Cl)oc1NCCOCCNc1ccncc1` [Compound 91, 5-((2-(2-(Pyridin-4-ylamino)ethoxy)ethyl)amino)-2-(2,3,5-trichlorophenyl)oxazole-4-carbonitrile], for which the IC50 is more than 20000 nM.

With `Cc1c(Cl)cc(Cl)cc1-c1nc(C#N)c(NCCCCCO)o1` [Compound 24, 2-(3,5-Dichloro-2-methylphenyl)-5-((5-hydroxypentyl)amino)oxazole-4-carbonitrile], the IC50 was determined as 320 nM and the Emax was 80%.

Consider `CNc1oc(-c2cc(Cl)cc(Cl)c2F)nc1C#N` [Compound 3, 2-(3,5-Dichloro-2-fluorophenyl)-5-(methylamino)oxazole-4-carbonitrile], for which the IC50 amounted to 330 nM and the Emax came out at 88%.

Take `CN(CCOCCNc1oc(-c2cc(Cl)cc(Cl)c2Cl)nc1C#N)c1ccccc1` [Compound 95, 5-((2-(2-(Methyl(phenyl)amino)ethoxy)ethyl)amino)-2-(2,3,5-trichlorophenyl)oxazole-4-carbonitrile]: the IC50 stood at 260 nM and the Emax came out at 83%.

On to `CNc1oc(-c2cc(C(F)(F)F)cc(Cl)c2Cl)nc1C#N` [Compound 12, 2-(2,3-Dichloro-5-(trifluoromethyl)phenyl)-5-(methylamino)oxazole-4-carbonitrile], for which the IC50 was more than 20000 nM and the Emax was found to be 41%.

`N#Cc1nc(-c2cc(Cl)cc(Cl)c2Cl)oc1NCCOCCN1CCCC(F)C1` (stereo not drawn) [Compound 74, 5-((2-(2-(3-Fluoropiperidin-1-yl)ethoxy)ethyl)amino)-2-(2,3,5-trichlorophenyl)oxazole-4-carbonitrile]: the IC50 was more than 20000 nM.

For the molecule `N#Cc1nc(-c2cc(Cl)cc(Cl)c2Cl)oc1NCCOCCOc1ccnc(F)c1` [Compound 102, 5-((2-(2-((2-Fluoropyridin-4-yl)oxy)ethoxy)ethyl)amino)-2-(2,3,5-trichlorophenyl)oxazole-4-carbonitrile], half-maximal inhibition (IC50) required 110 nM and the Emax came to 86%.

For `CN(CCOCCNc1oc(-c2cc(Cl)cc(Cl)c2Cl)nc1C#N)CC(F)(F)F` [Compound 73, 5-((2-(2-(Methyl(2,2,2-trifluoroethyl)amino)ethoxy)ethyl)amino)-2-(2,3,5-trichlorophenyl)oxazole-4-carbonitrile], the IC50 stood at 470 nM and the Emax stood at 70%.

In turn, `CN(C)CCCC(=O)Nc1oc(-c2cc(Cl)cc(Cl)c2Cl)nc1C#N` [Compound 65, N-(4-Cyano-2-(2,3,5-trichlorophenyl)oxazol-5-yl)-4-(dimethylamino)butanamide hydrochloride] came in with an IC50 of more than 20000 nM.

Molecule `N#Cc1nc(-c2cc(Cl)cc(Cl)c2Cl)oc1NCCOCCN1CC(F)C1` [Compound 77, 5-((2-(2-(3-Fluoroazetidin-1-yl)ethoxy)ethyl)amino)-2-(2,3,5-trichlorophenyl)oxazole-4-carbonitrile] registered an IC50 of more than 20000 nM.

`CN(c1oc(-c2cc(Cl)cc(Cl)c2Cl)nc1C#N)P(=O)(O)O` [Compound 68, (4-cyano-2-(2,3,5-trichlorophenyl)oxazol-5-yl)(methyl)phosphoramidic acid] returned an IC50 of more than 20000 nM.

For `N#Cc1nc(-c2cc(Cl)cc(Cl)c2Cl)oc1NCCOCCN1CCC(F)(F)C1` [Compound 92, 5-((2-(2-(3,3-Difluoropyrrolidin-1-yl)ethoxy)ethyl)amino)-2-(2,3,5-trichlorophenyl)oxazole-4-carbonitrile], the IC50 stood at 8800 nM and the Emax came to 86%.

`COCCOCCNc1oc(-c2cc(Cl)cc(C(F)(F)F)c2Cl)nc1C#N` [Compound 37, 2-(2,5-Dichloro-3-(trifluoromethyl)phenyl)-5-((2-(2-methoxyethoxy)ethyl)amino)oxazole-4-carbonitrile]: the IC50 turned out to be 1800 nM and the Emax came out at 96%.

`COCCOC(=O)Nc1oc(-c2cc(Cl)cc(Cl)c2Cl)nc1C#N` [Compound 58, 2-Methoxyethyl (4-cyano-2-(2,3,5-trichlorophenyl)oxazol-5-yl)carbamate] returned a half-inhibitory concentration (IC50) of more than 20000 nM.

For the molecule `CN(C)CCCNC(=O)N(C)c1oc(-c2cc(Cl)cc(Cl)c2Cl)nc1C#N` [Compound 66, 1-(4-cyano-2-(2,3,5-trichlorophenyl)oxazol-5-yl)-3-(3-(dimethylamino)propyl)-1-methylurea hydrochloride], the IC50 was more than 20000 nM.

As to `N#Cc1nc(-c2cc(Cl)cc(C(F)(F)F)c2Cl)oc1NCCOCCO` [Compound 31, 2-(2,5-Dichloro-3-(trifluoromethyl)phenyl)-5-((2-(2-hydroxyethoxy)ethyl)amino)oxazole-4-carbonitrile], half-maximal inhibition (IC50) required 2400 nM and the Emax was determined as 99%.

Molecule `COCCOCCOC(=O)N(C)c1oc(-c2cc(Cl)cc(Cl)c2Cl)nc1C#N` [Compound 56, 2-(2-Methoxyethoxy)ethyl (4-cyano-2-(2,3,5-trichlorophenyl)oxazol-5-yl)(methyl)carbamate] returned an IC50 of more than 20000 nM.

As to `CNc1oc(-c2cc(Cl)cc(C(F)(F)F)c2Cl)nc1C#N` [Compound 8, 2-(2,5-Dichloro-3-(trifluoromethyl)phenyl)-5-(methylamino)oxazole-4-carbonitrile], the IC50 was found to be 81 nM and the Emax came to 94%.

Molecule `CN(C(=O)CC1CCNCC1)c1oc(-c2cc(Cl)cc(Cl)c2Cl)nc1C#N` [Compound 53] returned an IC50 of more than 20000 nM.

On to `N#Cc1nc(-c2cc(Cl)cc(Cl)c2Cl)oc1NCCOCCOc1cccnc1` [Compound 76, 5-((2-(2-(Pyridin-3-yloxy)ethoxy)ethyl)amino)-2-(2,3,5-trichlorophenyl)oxazole-4-carbonitrile], for which the IC50 was 250 nM and the Emax worked out at 74%.
